Laboratory results as given in the CheMixHub ionic liquid set.
± gives the uncertainty stated by the source.

Test: xn = mol fraction of the nth substance listed
Settings: for electrical conductivity: frequency 0.00293 MHz

CC[N+](CC)(CC)CC.O=[N+]([O-])[O-] + CC[NH3+].O=[N+]([O-])[O-]
101 kPa
Settings	electrical conductivity [S/m]	viscosity [mPa·s]
293.15 K, x1 = 0.15	1.01	74.1
303.15 K, x1 = 0.0501	2.13	35.5
303.15 K, x1 = 0.15	1.42	50
303.15 K, x1 = 0.35	0.565	131
308.15 K, x1 = 0.2001	1.34	50.4
313.15 K, x1 = 0.1	2.33	30.3
318.15 K, x1 = 0.2995	1.04	50.9
323.15 K, x1 = 0.15	2.46	26.2
328.15 K, x1 = 0.2001	–	26.6
328.15 K, x1 = 0.2567	–	32.4
328.15 K, x1 = 0.35	–	48.3
333.15 K, x1 = 0.15	–	20.1
343.15 K, x1 = 0.15	–	15.7
348.15 K, x1 = 0.2001	–	16
348.15 K, x1 = 0.35	–	26.3
353.15 K, x1 = 0.1	–	11
353.15 K, x1 = 0.35	–	23.4

CCCC[n+]1ccn(C)c1.O=S(=O)([O-])C(F)(F)F + CS(C)=O
viscosity [mPa·s], 100 kPa
Settings	x1 = 0.1006	x1 = 0.2001	x1 = 0.3054	x1 = 0.4035	x1 = 0.502	x1 = 0.6085	x1 = 0.7001	x1 = 0.8088	x1 = 0.9004	x1 = 1
298.15 K	4 ± 0.4	6.59 ± 0.66	10.1 ± 1	14.3 ± 1.4	21.8 ± 2.2	33 ± 3.3	44 ± 4.4	59.8 ± 6	72.8 ± 7.3	82.4 ± 8.4
303.15 K	3.57 ± 0.36	5.71 ± 0.57	8.68 ± 0.87	12.4 ± 1.2	18.4 ± 1.9	27.2 ± 2.7	36 ± 3.6	48.1 ± 4.8	58.3 ± 5.9	66.7 ± 6.7
308.15 K	3.18 ± 0.32	–	7.55 ± 0.76	10.5 ± 1	15.5 ± 1.5	22.7 ± 2.3	29.7 ± 3	39.6 ± 4	47.4 ± 4.8	52.9 ± 5.3
313.15 K	2.88 ± 0.29	4.46 ± 0.45	6.61 ± 0.66	9.22 ± 0.93	13.3 ± 1.3	19.2 ± 1.9	25 ± 2.5	32.8 ± 3.3	39 ± 3.9	43.7 ± 4.4
318.15 K	2.61 ± 0.26	3.98 ± 0.4	5.83 ± 0.59	8.08 ± 0.81	11.5 ± 1.2	16.4 ± 1.6	21.2 ± 2.1	27.5 ± 2.8	32.6 ± 3.3	36.3 ± 3.7
323.15 K	2.38 ± 0.24	3.59 ± 0.36	5.2 ± 0.52	7.15 ± 0.72	10.1 ± 1	14.2 ± 1.4	18.1 ± 1.8	23.4 ± 2.4	27.5 ± 2.8	30.6 ± 3.1
